In publication PMC11695631 (Nature Communications, 2025):

Biological target: Vesicular monoamine transporter 2 (VMAT2) (Homo sapiens, UniProt Q05940)
Assay: cryo-EM structure at […] Å
Format: cell-based

Vesicular monoamine transporter 2 (VMAT2), sequence (Q05940 12-514): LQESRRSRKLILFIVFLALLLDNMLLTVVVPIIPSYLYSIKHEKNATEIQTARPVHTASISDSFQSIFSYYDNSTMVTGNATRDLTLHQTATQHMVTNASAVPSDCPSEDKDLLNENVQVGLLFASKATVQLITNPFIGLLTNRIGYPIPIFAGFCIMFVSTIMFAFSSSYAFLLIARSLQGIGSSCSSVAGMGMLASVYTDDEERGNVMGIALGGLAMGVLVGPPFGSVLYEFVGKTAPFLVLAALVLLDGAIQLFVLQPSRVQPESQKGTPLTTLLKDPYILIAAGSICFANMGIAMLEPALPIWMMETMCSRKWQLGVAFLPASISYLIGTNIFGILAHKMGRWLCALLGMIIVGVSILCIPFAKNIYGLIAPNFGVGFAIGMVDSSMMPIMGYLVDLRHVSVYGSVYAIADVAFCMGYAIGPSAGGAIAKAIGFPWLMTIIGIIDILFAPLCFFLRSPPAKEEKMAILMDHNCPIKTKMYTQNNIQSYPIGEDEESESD

IC50: 20.4 ± 4.1 nM
Compound: COc1cc2c(cc1OC)C1CC(=O)C(CC(C)C)CN1CC2 (stereo not shown) [TBZ, tetrabenazine]
